From patent US8796268B2, “Heteroaryls and uses thereof” (Millennium Pharmaceuticals, Inc., priority 2010, dated 2014)

Legend:
[1] = molecular target: T1, Human PI3K alpha (Homo sapiens, UniProt P42336); experiment: Human PI3K alpha enzyme assay (HTRF); assay type: biochemical; conditions: read-out: PI3Kalpha IC50
T1 construct: His (N); host or cells: SF9 insect cells (baculovirus)
From the text: (§1) The catalytic subunits of PI3Ks are cloned into either pDEST8(p110 alpha) or pDEST10(p110beta, p110delta, and p110gamma) as N-terminal His tagged fusion proteins using the Gateway system (Invitrogen, catalog#11804-010 for pDEST8 and 11806-015 for pDEST10). The sequences are verified before recombinant protein expression using the Baculovirus Expression System with Gateway® Technology. The accession numbers for the subunits are as follows: • p110 alpha (GB:U79143) • p110beta (GB: S67334) • p110delta (GB: U86453) • p110gamma (GB: X83368) • The regulatory subunits of PI3Ks are cloned into pDEST8 as un-tagged protein using the Gateway system (Catalog#11804-010). The sequences are verified before recombinant protein expression using the Baculovirus Expression System with Gateway® Technology. The accession numbers for the subunits are as following: • p85 alpha (GB: BC030815) • p101(GB: AB028925) • VPS34 (accession number GB:BC033004) is cloned into pDEST20—Thombin as N-terminal GST tagged fusion proteins using the Gateway system (Invitrogen, catalog#11804-013). The sequences are verified before recombinant protein expression using the Baculovirus Expression System with Gateway® Technology.
(§2) For expression of the p110 complexes, the p85 (MOI of 4) is co-infected with p110 alpha, beta, and delta respectively (1MOI) in SF9 cells and harvested at 60 hours post co-infection. P110 gamma was infected at 1 MOI and harvested at 60 hours post infection.
(§3) For purification, PI3Ks are purified by Ni-NTA Agarose (Qiagen #30250) followed by Mono Q 10/100 GL (Ge Healthcare #17-5167-01). VPS34 is purified by Glutathione Sepharose 4 Fast Flow (GE Healthcare #17-5132-03) followed by HiTrap Q (GE Healthcare #17-1153-01).
1) Human PI3K alpha enzyme assay method
(§4) 0.5 uL compounds in DMSO are added to wells of a 384 well microtitre plate (Corning 3575). At room temperature: 10 ul PI3K reaction buffer (50 mM Hepes, 5 mM DTT, 150 mM NaCl, 10 mM beta-glycerophosphate, 10 mM MgCl2, 0.25 mM sodium cholate and 0.001% CHAPS, pH 7.00) containing ATP (25 uM, Promega) is added followed immediately by 10 ul PI3K reaction buffer containing di-C8 P1(4,5)P2 (3.5 uM, CellSignals) and PI3Kalpha (0.4875 nM, Millennium Protein Sciences Group) and the mixture is incubated with shaking at room temperature for 30 minutes. Then 5 ul PI3K stop mix (50 mM Hepes, 5 mM DTT, 150 mM NaCl, 0.01% Tween-20, 15 mM EDTA and 25 nM biotin-PI(3,4,5)P3 (Echelon) is added to quench the reaction followed immediately by addition of 5 ul HTRF detection mix (50 mM Hepes, 5 mM DTT, 150 mM NaCl, 0.01% Tween-20, 40 mM KF, 1.0 nM GST:GRP-1 PH domain (Millennium Protein Sciences Group), 15 nM Streptavidin-XL (CisBio) and 0.375 nM anti-GST Eu++ antibody (CisBio) at pH 7.00). The plates are then incubated for 1 hour at room temperature with shaking and then read on a BMG PheraStar Plus reader.
(§5) For the assay methods described above, test compound percent inhibition, at various concentrations, is calculated relative to control (DMSO and EDTA) treated samples. Compound concentration versus percent inhibition curves are fitted to generate IC50 values. One skilled in the art will appreciate that the values generated either as percentage inhibition at a single concentration or IC50 values are subject to experimental variation.

[2] = molecular target: T2, Human PI3K beta (Homo sapiens, UniProt P42338); experiment: Human PI3K beta enzyme assay (HTRF); assay type: biochemical; conditions: read-out: PI3 Kbeta IC50
T2 construct: His (N); host or cells: SF9 insect cells (baculovirus)
T2 sequence (P42338 whole entry): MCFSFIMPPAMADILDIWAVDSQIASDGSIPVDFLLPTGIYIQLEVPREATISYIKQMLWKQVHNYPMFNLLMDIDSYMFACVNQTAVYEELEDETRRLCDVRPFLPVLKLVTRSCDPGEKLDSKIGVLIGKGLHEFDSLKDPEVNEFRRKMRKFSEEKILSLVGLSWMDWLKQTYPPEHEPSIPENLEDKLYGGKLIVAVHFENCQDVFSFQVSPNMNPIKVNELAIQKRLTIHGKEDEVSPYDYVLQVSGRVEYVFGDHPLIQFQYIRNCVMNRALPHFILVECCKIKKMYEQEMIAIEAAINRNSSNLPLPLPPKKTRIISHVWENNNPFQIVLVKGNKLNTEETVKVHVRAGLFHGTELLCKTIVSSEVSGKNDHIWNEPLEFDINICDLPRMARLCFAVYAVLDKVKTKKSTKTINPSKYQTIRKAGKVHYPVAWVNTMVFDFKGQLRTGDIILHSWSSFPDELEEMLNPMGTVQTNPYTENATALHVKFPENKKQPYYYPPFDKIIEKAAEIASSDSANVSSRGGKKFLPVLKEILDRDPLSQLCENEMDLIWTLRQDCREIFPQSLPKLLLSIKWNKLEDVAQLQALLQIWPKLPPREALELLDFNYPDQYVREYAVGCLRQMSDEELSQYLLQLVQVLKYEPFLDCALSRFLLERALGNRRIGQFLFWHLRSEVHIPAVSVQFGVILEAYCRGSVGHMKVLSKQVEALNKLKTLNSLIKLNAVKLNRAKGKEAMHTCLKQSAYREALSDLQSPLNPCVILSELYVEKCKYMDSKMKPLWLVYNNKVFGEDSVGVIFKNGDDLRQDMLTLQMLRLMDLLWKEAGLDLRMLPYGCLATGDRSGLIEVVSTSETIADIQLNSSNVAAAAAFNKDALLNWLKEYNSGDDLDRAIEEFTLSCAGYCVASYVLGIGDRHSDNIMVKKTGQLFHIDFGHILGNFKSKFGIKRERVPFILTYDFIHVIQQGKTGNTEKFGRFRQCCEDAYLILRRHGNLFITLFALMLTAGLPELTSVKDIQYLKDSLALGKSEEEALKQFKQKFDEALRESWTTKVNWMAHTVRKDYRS
T2 sequence (P27986 whole entry partner): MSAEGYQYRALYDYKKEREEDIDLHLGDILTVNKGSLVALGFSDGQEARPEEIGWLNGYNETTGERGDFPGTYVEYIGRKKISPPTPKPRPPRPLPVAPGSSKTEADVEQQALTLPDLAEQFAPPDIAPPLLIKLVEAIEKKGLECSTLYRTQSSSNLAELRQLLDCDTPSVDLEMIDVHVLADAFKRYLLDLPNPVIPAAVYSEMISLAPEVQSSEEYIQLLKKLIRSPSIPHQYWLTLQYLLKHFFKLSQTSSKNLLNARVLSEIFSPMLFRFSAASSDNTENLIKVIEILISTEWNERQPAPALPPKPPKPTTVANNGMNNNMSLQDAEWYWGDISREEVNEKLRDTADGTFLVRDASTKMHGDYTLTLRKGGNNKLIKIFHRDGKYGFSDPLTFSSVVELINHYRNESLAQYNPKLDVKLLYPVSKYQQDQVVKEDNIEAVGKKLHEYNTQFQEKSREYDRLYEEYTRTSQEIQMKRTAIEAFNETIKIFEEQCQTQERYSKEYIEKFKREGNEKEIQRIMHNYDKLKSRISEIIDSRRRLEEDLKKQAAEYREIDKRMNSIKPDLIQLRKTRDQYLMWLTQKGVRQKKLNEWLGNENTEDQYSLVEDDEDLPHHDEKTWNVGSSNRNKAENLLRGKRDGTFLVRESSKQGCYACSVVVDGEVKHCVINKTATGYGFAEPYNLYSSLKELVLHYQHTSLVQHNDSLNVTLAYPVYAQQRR
From the text: as §1, §2, §3, §4
2) Human PI3K beta, delta and gamma isoforms are tested using the procedure described for PI3K alpha above but with the following changes: PI3K beta (5.25 nM), PI3K delta (0.75 nM) and PI3K gamma (5 nM). All isoforms supplied by Millennium Protein Science Group.
as §5

T1 sequence (P42336 whole entry): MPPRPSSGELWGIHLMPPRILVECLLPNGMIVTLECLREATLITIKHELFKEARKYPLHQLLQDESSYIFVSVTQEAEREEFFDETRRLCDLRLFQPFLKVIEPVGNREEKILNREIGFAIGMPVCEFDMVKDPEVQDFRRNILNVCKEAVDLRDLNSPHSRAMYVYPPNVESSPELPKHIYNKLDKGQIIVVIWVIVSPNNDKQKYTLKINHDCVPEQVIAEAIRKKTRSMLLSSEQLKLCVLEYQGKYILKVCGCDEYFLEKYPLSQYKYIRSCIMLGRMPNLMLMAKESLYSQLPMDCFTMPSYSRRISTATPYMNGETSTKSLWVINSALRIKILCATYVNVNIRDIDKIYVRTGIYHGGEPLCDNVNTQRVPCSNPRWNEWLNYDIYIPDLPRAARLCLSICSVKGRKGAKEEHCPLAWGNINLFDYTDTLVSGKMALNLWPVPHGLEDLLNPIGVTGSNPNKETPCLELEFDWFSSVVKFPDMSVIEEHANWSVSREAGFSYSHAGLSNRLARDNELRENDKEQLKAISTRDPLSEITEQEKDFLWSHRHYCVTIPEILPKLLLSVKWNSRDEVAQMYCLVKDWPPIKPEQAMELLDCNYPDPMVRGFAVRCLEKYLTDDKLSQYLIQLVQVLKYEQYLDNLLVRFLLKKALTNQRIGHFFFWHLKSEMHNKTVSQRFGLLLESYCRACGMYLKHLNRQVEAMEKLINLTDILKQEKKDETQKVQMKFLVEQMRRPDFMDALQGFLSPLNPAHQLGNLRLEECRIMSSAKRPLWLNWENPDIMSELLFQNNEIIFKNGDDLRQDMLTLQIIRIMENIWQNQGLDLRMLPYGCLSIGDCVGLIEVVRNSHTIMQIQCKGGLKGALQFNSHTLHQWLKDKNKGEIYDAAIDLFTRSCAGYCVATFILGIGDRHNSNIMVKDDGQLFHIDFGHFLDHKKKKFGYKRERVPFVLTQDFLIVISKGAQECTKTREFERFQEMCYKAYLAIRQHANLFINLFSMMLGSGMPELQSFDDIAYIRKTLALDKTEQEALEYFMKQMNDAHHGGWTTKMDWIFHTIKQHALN
T1 sequence (P27986 whole entry partner): as the sequence (P27986 whole entry partner) above

Row | IC50 [1] [nM] | IC50 [2] [nM] | Structure (SMILES)
1 | 100 to 1000 | 100 to 1000 | Cc1nn2ccc(CNC(=N)N)cc2c1-c1nc(Cc2ccc(Cl)cc2)c(-c2nnc[nH]2)s1 [Compound 35, N-({3-[4-(4-chlorobenzyl)-5-(4H-1,2,4-triazol-3-yl)-1,3-thiazol-2-yl]-2-methylpyrazolo[1,5-a]pyridin-5-yl}methyl)guanidine]
2 | > 1000 | < 100 | N#Cc1c(-c2ccncc2)sc(C(=O)O)c1Cc1ccc(Cl)cc1 [Compound 36]
3 | > 1000 | 100 to 1000 | Fc1cc(-c2nc(Cc3ccc(Cl)cc3)c(-c3nnc[nH]3)s2)ccn1 [Compound 37]
4 | 100 to 1000 | 100 to 1000 | Cc1nn2ccc(CNCCCN)cc2c1-c1nc(Cc2ccc(Cl)cc2)c(-c2nnc[nH]2)s1 [Compound 38]
5 | > 1000 | 100 to 1000 | Clc1ccc(Cc2nc(-c3ccnnc3)sc2-c2nnc[nH]2)cc1 [Compound 39]
6 | < 100 | < 100 | CC(=O)Nc1cc(-c2cc(C(O)c3ccc(Cl)cc3)c(-c3nnc[nH]3)s2)ccn1 (stereo not shown) [Compound 41]
7 | 100 to 1000 | 100 to 1000 | OC(c1ccc(Cl)cc1)c1cc(-c2ccnc3ccccc23)sc1-c1nnc[nH]1 (stereo not shown) [Compound 42]
8 | > 1000 | < 100 | Cc1cc(-c2cc([C@H](O)c3ccc(Cl)cc3)c(-c3nnc[nH]3)s2)ccn1 [Compound 43]
9 | > 1000 | < 100 | CN(C)[C@H](c1ccc(Cl)cc1)c1cc(-c2ccncc2)sc1-c1nnc[nH]1 [Compound 44]
10 | > 1000 | < 100 | O[C@H](c1ccc(Cl)cc1)c1cc(-c2ccnc(F)c2)sc1-c1nnc[nH]1 [Compound 45]
11 | > 1000 | 100 to 1000 | Cc1noc(C)c1-c1nc(Cc2ccc(Cl)cc2)c(-c2nnc[nH]2)s1 [Compound 46]
12 | > 1000 | 100 to 1000 | Clc1ccc(Cc2nc(-c3ccnc(Cl)c3)sc2-c2nnc[nH]2)cc1 [Compound 47, 4-(4-chlorobenzyl)-2-(2-chloropyridin-4-yl)-5-(4H-1,2,4-triazol-3-yl)thiazole]
13 | 100 to 1000 | 100 to 1000 | N#Cc1cc(-c2cc([C@@H](O)c3ccc(Cl)cc3)c(-c3nnc[nH]3)s2)ccn1 [Compound 48]
14 | > 1000 | > 1000 | OCCNc1cc(-c2cc(C(O)c3ccc(Cl)cc3)c(-c3nnc[nH]3)s2)ccn1 (stereo not shown) [Compound 49, 2-({4-[4-[(4-chlorophenyl)(hydroxy)methyl]-5-(4H-1,2,4-triazol-3-yl)-2-thienyl]pyridin-2-yl}amino)ethanol]
15 | < 100 | < 100 | Cc1nn2ccc(CNC(=O)c3cnccn3)cc2c1-c1nc(Cc2ccc(Cl)cc2)c(-c2nnc[nH]2)s1 [Compound 50, N-({3-[4-(4-chlorobenzyl)-5-(4H-1,2,4-triazol-3-yl)-1,3-thiazol-2-yl]-2-methylpyrazolo[1,5-a]pyridin-5-yl}methyl)pyrazine-2-carboxamide]
16 | > 1000 | < 100 | Clc1ccc(C(c2cc(-c3ccncc3)sc2-c2nnc[nH]2)N2CCC2)cc1 (stereo not shown) [Compound 51]
17 | > 1000 | < 100 | OC(c1ccc(Cl)cc1)c1cc(-c2ccncc2)sc1-c1nnc[nH]1 (stereo not shown) [Compound 52]
18 | 100 to 1000 | 100 to 1000 | Clc1ccc(Cc2nc(-c3ccnc4[nH]ccc34)sc2-c2ncn[nH]2)cc1 [Compound 53]
19 | 100 to 1000 | 100 to 1000 | Cc1nn2ccc(CNCCN)cc2c1-c1nc(Cc2ccc(Cl)cc2)c(-c2nnc[nH]2)s1 [Compound 54]

Row | IC50 [1] [nM] | IC50 [2] [nM] | Structure (SMILES)
20 | > 1000 | > 1000 | O[C@@H](c1ccc(Cl)cc1)c1cc(-c2ccnnc2)sc1-c1nnc[nH]1 [Compound 55]
21 | 100 to 1000 | 100 to 1000 | CC(=O)Nc1cc(-c2nc(Cc3ccc(Cl)cc3)c(-c3ncn[nH]3)s2)ccn1 [Compound 56, N-{4-[4-(4-chlorobenzyl)-5-(4H-1,2,4-triazol-3-yl)-1,3-thiazol-2-yl]pyridin-2-yl}acetamide]
22 | 100 to 1000 | 100 to 1000 | OC(c1ccc(Cl)cc1)c1cc(-c2ccnc3sccc23)sc1-c1nnc[nH]1 (stereo not shown) [Compound 57]
23 | > 1000 | 100 to 1000 | CN1CCc2cc(Cl)ccc2C1c1cc(-c2ccncc2)sc1-c1ccn[nH]1 (stereo not shown) [Compound 58, 6-Chloro-2-methyl-1-[2-(1H-pyrazol-5-yl)-5-pyridin-4-yl-3-thienyl]-1,2,3,4-tetrahydroisoquinoline]
24 | > 1000 | < 100 | O[C@H](c1ccc(Cl)cc1)c1cc(-c2ccnnc2)sc1-c1nnc[nH]1 [Compound 59]
25 | > 1000 | 100 to 1000 | CC(=O)Nc1cc(-c2nc(C(O)c3ccc(Cl)cc3)c(-c3ncc[nH]3)s2)ccn1 (stereo not shown) [Compound 60, N-{4-[4-[(4-chlorophenyl)(hydroxy)methyl]-5-(1H-imidazol-2-yl)-1,3-thiazol-2-yl]pyridin-2-yl}acetamide]
26 | 100 to 1000 | 100 to 1000 | Cc1nn2ccc(CN3CCC(N)CC3)cc2c1-c1nc(Cc2ccc(Cl)cc2)c(-c2nnc[nH]2)s1 [Compound 61]
27 | > 1000 | 100 to 1000 | CNc1cc(-c2cc(C(O)c3ccc(Cl)cc3)c(-c3nnc[nH]3)s2)ccn1 (stereo not shown) [Compound 62]
28 | > 1000 | > 1000 | CNc1cc(-c2nc(Cc3ccc(Cl)cc3)c(-c3nnc[nH]3)s2)ccn1 [Compound 63]
29 | 100 to 1000 | 100 to 1000 | O=C1CCc2c(-c3cc(C(O)c4ccc(Cl)cc4)c(-c4nnc[nH]4)s3)ccnc2N1 (stereo not shown) [Compound 64]
30 | > 1000 | < 100 | CN(C)[C@@H](c1ccc(Cl)cc1)c1cc(-c2ccncc2)sc1-c1nnc[nH]1 [Compound 65]
31 | > 1000 | < 100 | Clc1ccc(Cc2nc(-c3ccncc3)sc2-c2cnc[nH]2)cc1 [Compound 66, 4-(4-chlorobenzyl)-5-(1H-imidazol-5-yl)-2-(pyridin-4-yl)thiazole]
32 | 100 to 1000 | > 1000 | CC(=O)Nc1cc(-c2nc(Cc3ccccc3Cl)c(-c3ncc[nH]3)s2)ccn1 [Compound 67]
33 | > 1000 | 100 to 1000 | OC(c1ccc(Cl)cc1)c1cc(-c2ncncc2F)sc1-c1nnc[nH]1 (stereo not shown) [Compound 68]
34 | 100 to 1000 | 100 to 1000 | CC(=O)Nc1cc(-c2sc(-c3nnc[nH]3)c(Cc3ccc(Cl)cc3)c2C#N)ccn1 [Compound 71, N-{4-[4-(4-chlorobenzyl)-3-cyano-5-(4H-1,2,4-triazol-3-yl)-2-thienyl]pyridin-2-yl}acetamide]
35 | 100 to 1000 | 100 to 1000 | Cc1nn2ccc(CN3CCNCC3)cc2c1-c1nc(Cc2ccc(Cl)cc2)c(-c2nnc[nH]2)s1 [Compound 72, 3-[4-(4-chlorobenzyl)-5-(4H-1,2,4-triazol-3-yl)-1,3-thiazol-2-yl]-2-methyl-5-(piperazin-1-ylmethyl)pyrazolo[1,5-a]pyridine]
36 | > 1000 | 100 to 1000 | CC(=O)Nc1cc(-c2nc(Cc3ccc(Cl)cc3)c(-c3ncc[nH]3)s2)ccn1 [Compound 73]
37 | 100 to 1000 | 100 to 1000 | CC(=O)Nc1cc(-c2sc(C(=O)O)c(Cc3ccc(Cl)cc3)c2C#N)ccn1 [Compound 74]
38 | > 1000 | < 100 | Nc1cc(-c2cc(C(O)c3ccc(Cl)cc3)c(-c3nnc[nH]3)s2)ccn1 (stereo not shown) [Compound 75]
